In US4016159A, “Acylamino-cephem-carboxylic acids containing an amidino or guanidino group in the molecule” (Hoechst Aktiengesellschaft, priority 1973, dated 1977):
≈ marks a conversion by molar mass, not a printed value. Where two headings read alike, the source gives them in different places.

Tests used:
Type in all cases: cell-based
[1] = system: Staphylococcus aureus 285; assay: Minimum inhibition concentration (MIC), Table 1
From the text: (§1) Minimum inhibition concentration (MIC) in γ/ml
Germ: Staphylococcus aureus 285

Streptococcus pyogenes A = assay: Minimum inhibition concentration (MIC), Table 3; conditions: Germ: Streptococcus pyogenes A; for MIC: read-out: Minimum inhibition concentration MIC
From the text: Minimum inhibition concentration MIC in γ/ml
Germ: Streptococcus pyogenes A

Streptococcus D = assay: Minimum inhibition concentration (MIC), Table 4; conditions: Germ: Streptococcus D; for MIC: Streptococcus, read-out: Minimum inhibition concentration (MIC)
From the text: as §1

[2] = Staphylococcus aureus, 285, Germ: Staphylococcus aureus 285, read-out: Minimum inhibition concentration (MIC)
[3] = Staphylococcus aureus, 285, read-out: Minimum inhibition concentration (MIC)

Molecule | MIC [1, 2] [µg/mL] | MIC (Streptococcus pyogenes A) [µg/mL] | other results
3-[(5-methyl-1,3,4-thiadiazole-2-yl)-thiomethyl]-7-[4-(imidazoline-2-yl)-2-methoxyphenoxy-acetamido]-Δ3-cephem-4-carboxylic acid [Example 126] |  |  | Minimum inhibition concentration (MIC) ([1]; Germ: Staphylococcus aureus 285): 0.5 to 1.25 µg/mL; Minimum inhibition concentration (MIC) (Streptococcus pyogenes A): 0.008 to 0.0156 µg/mL; Minimum inhibition concentration (MIC) (Streptococcus D): 10 to 50 µg/mL
CC1(C)S[C@@H]2[C@H](NC(=O)[C@H](N)c3ccccc3)C(=O)N2[C@H]1C(=O)O [Ampicillin, reference compound] | 100 (≈ 286 µM) |  | 
Cc1nnc(SCC2=C(C(=O)O)N3C(=O)[C@@H](NC(=O)Cn4cnnn4)[C@H]3SC2)s1 [Cephazolin, reference compound] |  |  | MIC (Streptococcus D): 100 µg/mL (≈ 220 µM)
Cc1csc(SCC2=C(C(=O)O)N3C(=O)C(NC(=O)Cc4ccc(NC(=N)N)cc4)C3SC2)n1 (stereo not shown) [Example 7] | 0.5 to 1.25 (≈ 0.964 to 2.41 µM) |  | MIC (Streptococcus D): 10 to 50 µg/mL (≈ 19.3 to 96.4 µM)
Cc1csc(SCC2=C(C(=O)O)N3C(=O)C(NC(=O)Cc4ccc(C5=NCCCN5)cc4)C3SC2)n1 (stereo not shown) [Example 15, 3-[(4-methyl-thiazole-2-yl)-thiomethyl]-7-[4-(1,4,5,6-tetrahydropyrimide-2-yl)-phenylacetamido]-Δ 3-cephem-4-carboxylic acid] | 1.6 to 2.5 (≈ 2.94 to 4.6 µM) |  | MIC (Streptococcus D): 10 to 50 µg/mL (≈ 18.4 to 92 µM)
Cc1n[nH]c(SCC2=C(C(=O)O)N3C(=O)C(NC(=O)Cc4ccc(C5=NCCCN5)cc4)C3SC2)n1 (stereo not shown) [Example 17, 3-[(methyl-1,2,4,-triazole-3-yl)-thiomethyl]-7-[4-(1,4,5,6-tetrahydropyrimide-2-yl)-phenylacetamido]-Δ 3-cephem-4-carboxylic acid] | 1.6 to 2.5 (≈ 3.03 to 4.74 µM) |  | MIC (Streptococcus D): 10 to 50 µg/mL (≈ 19 to 94.8 µM)
CCCc1nnc(SCC2=C(C(=O)O)N3C(=O)C(NC(=O)COc4ccc(C(=N)N)cc4)C3SC2)o1 (stereo not shown) [Example 40, 3-[(5-n-propyl-1,3,4-oxadiazole-2-yl)-thiomethyl]-7-(4-amidinophenoxyacetamido)-Δ 3-cephem-4-carboxylic acid] | 0.156 to 0.391 (≈ 0.293 to 0.734 µM) | 0.008 to 0.0156 (≈ 0.015 to 0.0293 µM) | 
Cc1nnc(SCC2=C(C(=O)O)N3C(=O)C(NC(=O)Cc4ccc(C(=N)N)cc4)C3SC2)s1 (stereo not shown) [Example 45, 3-[(5-methyl-1,3,4-thiadiazole-2-yl)-thiomethyl]-7-(4-amidinophenylacetamido)-Δ 3-cephem-4-carboxylic acid] | 0.156 to 0.391 (≈ 0.309 to 0.775 µM) | 0.000391 to 0.0078 (≈ 0.000775 to 0.0155 µM) | 
N=C(N)c1ccc(OCC(=O)NC2C(=O)N3C(C(=O)O)=C(CSc4nnc(-c5ccccc5)o4)CSC23)cc1 (stereo not shown) [Example 48, 3-[(5-phenyl-1,3,4-oxadiazole-2-yl)-thiomethyl]-7-(4-amidinophenoxyacetamido)-Δ 3-cephem-4-carboxylic acid] | 0.156 to 0.391 (≈ 0.275 to 0.69 µM) |  | Minimum inhibition concentration (MIC) (Streptococcus D): 0.196 to 6.25 µg/mL
CCCCc1nnc(SCC2=C(C(=O)O)N3C(=O)C(NC(=O)COc4ccc(C(=N)N)cc4)C3SC2)o1 (stereo not shown) [Example 66, 3-[(5-n-butyl-1,3,4-oxadiazole-2-yl)-thiomethyl]-7-(4-amidinophenoxyacetamido)-Δ 3-cephem-4-carboxylic acid] | 0.5 to 1.25 (≈ 0.915 to 2.29 µM) | 0.008 to 0.0156 (≈ 0.0146 to 0.0285 µM) | 
CCCCc1nnc(SCC2=C(C(=O)O)N3C(=O)C(NC(=O)COc4ccc(C(=N)N)cc4)C3SC2)s1 (stereo not shown) [Example 67, 3-[(5-n-butyl-1,3,4-thiadiazole-2-yl)-thiomethyl]-7-(4-amidinophenoxyacetamido)-Δ 3-cephem-4-carboxylic acid] | 0.5 to 1.25 (≈ 0.889 to 2.22 µM) |  | 
Cc1nnc(SCC2=C(C(=O)O)N3C(=O)C(NC(=O)COc4ccc(C5=NCCN5)cc4)C3SC2)o1 (stereo not shown) [Example 74, 3-[(5-methyl-1,3,4-oxadiazole-2-yl)-thiomethyl]-7-[4-(imidazoline-2-yl)-phenoxyacetamido]-Δ 3-cephem-4-carboxylic acid] | 0.5 to 1.25 (≈ 0.942 to 2.36 µM) | 0.008 to 0.0156 (≈ 0.0151 to 0.0294 µM) | 
Cc1nnc(SCC2=C(C(=O)O)N3C(=O)C(NC(=O)COc4ccc(C5=NCCCN5)cc4)C3SC2)o1 (stereo not shown) [Example 76, 3-[(5-methyl-1,3,4-oxadiazole-2-yl)-thiomethyl]-7-[4-(1,4,5,6-tetrahydropyrimide-2-yl)-phenoxy-acetamido]-Δ 3-cephem-4-carboxylic acid] | 0.5 to 1.25 (≈ 0.918 to 2.3 µM) |  | MIC (Streptococcus D): 10 to 50 µg/mL (≈ 18.4 to 91.8 µM)
CCCCc1nnc(SCC2=C(C(=O)O)N3C(=O)C(NC(=O)Cc4ccc(C5=NCCCN5)cc4)C3SC2)s1 (stereo not shown) [Example 77, 3-[(5-n-butyl-1,3,4-thiadiazole-2-yl)-thiomethyl]-7-[4-(1,4,5,6-tetrahydropyrimide-2-yl)-phenylacetamido]-Δ 3-cephem-4-carboxylic acid] | 0.5 to 1.25 (≈ 0.852 to 2.13 µM) | 0.008 to 0.0156 (≈ 0.0136 to 0.0266 µM) | 
Cc1nnc(SCC2=C(C(=O)O)N3C(=O)C(NC(=O)Cc4ccc(C5=NCCCN5)cc4)C3SC2)o1 (stereo not shown) [Example 78, 3-[(5-methyl-1,3,4-oxadiazole-2-yl)-thiomethyl]-[4-(1,4,5,6-tetrahydropyrimide-2-yl)-phenylacetamido]-Δ 3-cephem-4-carboxylic acid] | 0.5 to 1.25 (≈ 0.946 to 2.36 µM) | 0.008 to 0.0156 (≈ 0.0151 to 0.0295 µM) | 
Cn1nnnc1SCC1=C(C(=O)O)N2C(=O)C(NC(=O)Cc3ccc(C4=NCCCN4)cc3)C2SC1 (stereo not shown) [Example 87, 3-[(1-methyl-1H-tetrazole-5-yl)-thiomethyl]-7-[4-(1,4,5,6-tetrahydropyrimide-2-yl)-phenylacetamido]-Δ 3-cephem-4-carboxylic acid] | 1.6 to 2.5 (≈ 3.03 to 4.73 µM) |  | 
N=C(N)c1ccc(CC(=O)NC2C(=O)N3C(C(=O)O)=C(CSC4=NCCS4)CSC23)cc1 (stereo not shown) [Example 90, 3-[2-thiazoline-2-yl-thiomethyl]-7-[4-amidino-phenylacetamido]-Δ 3-cephem-4-carboxylic acid] | 0.156 to 0.391 (≈ 0.317 to 0.795 µM) | 0.000391 to 0.0078 (≈ 0.000795 to 0.0159 µM) | 
Cn1nnnc1SCC1=C(C(=O)O)N2C(=O)C(NC(=O)COc3ccc(C4=NCCCN4)cc3)C2SC1 (stereo not shown) [Example 93, 3-[(1-methyl-1-H-tetrazol-5-yl)-thiomethyl]-7-[4-(1,4,5,6-tetrahydropyrimide-2-yl)-phenoxyacetamido-]-Δ3-cephem-4-carboxylic acid] |  |  | MIC (Streptococcus D): 10 to 50 µg/mL (≈ 18.4 to 91.8 µM)
CCc1nnc(SCC2=C(C(=O)O)N3C(=O)C(NC(=O)Cc4ccc(C5=NCCCN5)cc4)C3SC2)n1N (stereo not shown) [Example 104, 3-[(4-amino-5-ethyl-1,2,4-triazole-3-yl)-thiomethyl]-7-[4-(1,4,5,6-tetrahydropyrimide-2-yl)-phenylacetamido-] -Δ3-cephem-4-carboxylic acid] | 1.6 to 2.5 (≈ 2.87 to 4.49 µM) |  | 
Cn1ccnc1SCC1=C(C(=O)O)N2C(=O)C(NC(=O)Cc3ccc(C4=NCCN4)cc3)C2SC1 (stereo not shown) [Example 123, 3-[(1-methylimidazole-2-yl)-thiomethyl]-7-[4-(imidazoline-2-yl)-phenylacetamido]-Δ 3-cephem-4-carboxylic acid] | 1.6 to 2.5 (≈ 3.12 to 4.88 µM) |  | 
COc1cc(C(=N)N)ccc1OCC(=O)NC1C(=O)N2C(C(=O)O)=C(CSc3nccs3)CSC12 (stereo not shown) [Example 129, 3-[(1,3-thiazole-2-yl)thiomethyl]-7-(4-amidino-2-methoxy-phenoxyacetamido)-Δ3-cephem-4-carboxylic acid] | 0.156 to 0.391 (≈ 0.291 to 0.73 µM) | 0.008 to 0.0156 (≈ 0.0149 to 0.0291 µM) | 
COc1cc(C(=N)N)ccc1OCC(=O)NC1C(=O)N2C(C(=O)O)=C(CSc3nc(C)cs3)CSC12 (stereo not shown) [Example 130, 3-[(4-methyl-1,3-thiazole-2-yl)-thiomethyl]-7-(4-amidino-2-methoxy-phenoxyacetamido)-Δ3-cephem-4-carboxylic acid] | 0.156 to 0.391 (≈ 0.284 to 0.711 µM) | 0.008 to 0.0156 (≈ 0.0146 to 0.0284 µM) | 
CC1(C)S[C@@H]2[C@H](NC(=O)Cc3ccccc3)C(=O)N2[C@H]1C(=O)O [Penicillin-G-Na, reference compound] |  |  | MIC [1, 3]: 125 µg/mL (≈ 374 µM)
CC1(C)S[C@@H]2[C@H](NC(=O)COc3ccccc3)C(=O)N2[C@H]1C(=O)O [Penicillin-V-K, reference compound] |  |  | MIC [1, 3]: 125 µg/mL (≈ 357 µM)
